Experimental data: patent US9682066B2 (University of Cincinnati, priority 2012, dated 2017)

What was measured:
MCF-7 = test: Cytotoxicity of letrozole (MTT assay); format: cell-based; settings: Homo sapiens, MCF7
MDA-MB-231 = test: Cytotoxicity of letrozole (MTT assay); format: cell-based; settings: Homo sapiens
rat glioma cell line C6 = test: Cytotoxicity of letrozole (MTT assay); format: cell-based
T98G = test: Cytotoxicity of letrozole (MTT assay); format: cell-based; settings: Homo sapiens
U373MG = test: Cytotoxicity of letrozole (MTT assay); format: cell-based; settings: Homo sapiens, U373 MG
[1] = biological target: T1, aromatase activity in rat glioma cell line C6 (Rattus norvegicus, UniProt P22443); test: Aromatase activity (estradiol EIA assay); format: cell-based; settings: testosterone 0.1 μM, 2 days incubation
T1 construct: endogenous in cells; host or cells: C6 rat glioma cell line
T1 sequence (P22443 1-508): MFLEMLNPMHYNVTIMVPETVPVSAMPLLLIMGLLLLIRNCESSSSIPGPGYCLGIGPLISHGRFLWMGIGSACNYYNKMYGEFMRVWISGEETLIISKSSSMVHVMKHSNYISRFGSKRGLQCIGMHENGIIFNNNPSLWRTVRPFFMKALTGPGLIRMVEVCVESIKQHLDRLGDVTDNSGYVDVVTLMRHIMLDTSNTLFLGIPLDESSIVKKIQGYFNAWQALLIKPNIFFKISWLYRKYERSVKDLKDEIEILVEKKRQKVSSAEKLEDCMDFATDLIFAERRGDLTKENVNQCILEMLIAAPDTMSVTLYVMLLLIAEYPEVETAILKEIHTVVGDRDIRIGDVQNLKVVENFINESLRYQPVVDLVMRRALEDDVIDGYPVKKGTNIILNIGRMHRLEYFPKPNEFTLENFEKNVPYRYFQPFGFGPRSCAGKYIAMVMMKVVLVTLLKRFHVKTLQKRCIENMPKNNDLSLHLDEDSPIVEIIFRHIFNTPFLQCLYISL

[2] = Tumoral versus normal brain ECF pharmacokinetics in C6 glioma-bearing rats; format: in vivo, female Sprague-Dawley rats
Description: Histology of rat brains was performed as outlined in Apparaju et al., Pharmacokinetics of gemcitabine in tumor and non-tumor extracellular fluid of brain: an in vivo assessment in rats employing intracerebral microdialysis, Cancer Chemother. Pharmacol. 61: 223-29 (2008).

[3] = Plasma protein binding with non-specific binding correction; format: in vitro ADME; settings: NSB correction, concentration range 0.1-10 μM
From the text: Results are presented as mean±SD.

C6 glioma [4] = test: In vivo anti-tumor efficacy of oral dosed letrozole; parameters: species or system rat; settings: 4 mg/kg/day oral gavage stopped after 15 days; scan on Day 45
From the text: Rats received tumor implantation as described in Example 6. […] Animals were scanned 5, 10, and 15 days after treatment period to observe change in tumor volume. After 15 days, treatment was stopped. Animals were scanned again on Day 45 (30 days post cessation of treatment).

aromatase = test: Aromatase expression in rat glioma tissue (IHC); format: in vivo; settings: treatment group versus control group (high expression)
Description: Expression of aromatase in tumors from rats of both control and treatment groups was evaluated using immunohistochemical (IHC analysis). Rat ovary (FIG. 12(A)) was used as a positive control for aromatase expression.

[5] = Brain pharmacokinetics after oral administration; format: in vivo; settings: rat, 4 mg/kg oral gavage, brain ECF
From the text: A slight delay in Tmax was observed, consistent with the delay of appearance of the drug in systemic circulation.

C6 glioma [6] = settings: 4 mg/kg/day i.v.
From the text: 10 days after tumor implantation, anesthetized rats were scanned on μPET scanner (Siemens Inveon) to obtain active tumor volume at Day 0.
Animals were scanned again 8-10 days post treatment to assess change in tumor volume.

[7] = Tumoral versus normal brain ECF pharmacokinetics in C6 glioma-bearing rats; format: in vivo; settings: female, Sprague-Dawley, rat, mean±SD; for AUC(0-t): 8 mg/kg IV bolus
[8] = test system: brain metastases from breast cancer; settings: cited from earlier work
in vivo = settings: female, Sprague-Dawley, rat, iv
Description: (§1) Experiments were carried out in female Sprague-Dawley rats weighing 200-250 g. […] Blood samples from jugular vein cannulation and dialysate samples from microdialysis probe implanted stereotactically into the striatum region of the brain were obtained every 30 minutes over 8 hours and analyzed by HPLC (fluorescence detection, Excitation λ, 230 nm; Emission λ, 295 nm). Microdialysate samples were corrected for in vivo relative recovery (9.5%), measured under similar experimental conditions.
(§2) In order to obtain the correct ECF concentrations from those obtained by bioanalysis of dialysate samples, the correction factor known as “% recovery” is employed. The % recovery for a compound can be obtained by in vivo or in vitro recovery analysis. […] In vitro relative recovery was calculated as follows: % recoveryin vitro=[C(dialysate)/C(reservoir)]×100
(§3) At the end of microdialysis, brain tissues were collected after transcardial perfusion for histological evaluation to confirm formation of tumor in the right striatum and immunohistochemistry to differentiate the expression of aromatase in tumoral and normal brain regions. The pharmacokinetic parameters (including time required to achieve maximum drug levels (Tmax), area under the concentrations-time curve (AUC) over a defined time interval, and peak or maximum concentrations (Cmax)) of both plasma and brain ECF were estimated by non-compartmental analysis using WinNonlin 6.2 (Pharsight Inc.).
(§4) The brain ECF concentrations were time-averaged over the collection interval and corrected for in vivo recovery. […] Results are presented as mean±SD. (N=9 for 4 and 8 mg/kg, N=6 for 6 and 12 mg/kg). […] Simultaneous plasma and ECF pharmacokinetic determination facilitated estimation of the relative brain distribution coefficient, calculated as (AUCbrain ecf/AUCplasma, ub).

[9] = Normal brain ECF (microdialysis) versus plasma pharmacokinetics, IV bolus; settings: for Cmax, Brain: brain ECF; for Cmax, Brain / AUC0-8 hr, Plasma ub (Unbound) / Cmax, Plasma ub (Unbound): mean±SD;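 for all read-outs here: parameters by non-compartmental analysis, mean±SD, brain ECF sampled by microdialysis in freely moving rats and corrected for in vivo recovery, Kp as brain ECF AUC over unbound plasma AUC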
Description: as §1, §2, §3, §4

[10] = female, Sprague-Dawley, rat, tumor-free brain ECF (left striatum, control), 8 mg/kg IV bolus, tumor-free brain ECF, mean±SD

## N#Cc1ccc(C(c2ccc(C#N)cc2)n2cncn2)cc1 [letrozole, 4,4′-((1H-1,2,4-triazol-1-yl)methylene)dibenzonitrile]
MCF-7
  IC50: < 100 nM
MDA-MB-231
  IC50: > 100000 nM
Rat glioma cell line C6
  IC50: 110 nM
T98G
  IC50: 2810 nM
U373MG
  IC50: 4390 nM
[1]
  IC50: 100 nM
[2]; 4 mg/kg IV bolus, tumoral brain ECF, mean±SD
  Cmax, Tumor: 354 ± 34 ng/mL
[2]; 8 mg/kg IV bolus, tumoral brain ECF, mean±SD
  Cmax, Tumor: 1022 ± 204 ng/mL
[2]; female, Sprague-Dawley, rat, tumor-free brain ECF (left striatum, control), 4 mg/kg IV bolus, tumor-free brain ECF, mean±SD
  Tmax: 1.75 ± 0.5 h
[2]; female, Sprague-Dawley, rat, tumor-free brain ECF (left striatum, control), 4 mg/kg IV bolus, tumor-free brain ECF, mean±SD, read-out: AUC0-8 hr, Control
  AUC(0-t): 803 ± 216 ng·h/mL
[2]; [10]
  Cmax: 475 ± 87 ng/mL
  Tmax: 1.33 ± 0.3 h
[2]; female, Sprague-Dawley, rat, tumoral brain ECF (right striatum), 4 mg/kg IV bolus, tumoral brain ECF, mean±SD, read-out: AUC0-8 hr, Tumor
  AUC(0-t): 1160 ± 167 ng·h/mL
[2]; rats, microdialysis
  penetration of BBB and BTB: effectively crosses the BBB and BTB
[3]
  fraction unbound: 0.38
C6 glioma [4]
  tumor course after cessation of treatment: tumors recurred once treatment was stopped
aromatase
  aromatase expression in tumor sections (IHC): relatively low aromatase expression
[5]
  Cmax: 176 ± 23 ng/mL
  Tmax: 5.75 ± 1.8 h
[5]; read-out: AUC0-8 hr
  AUC(0-t): 976 ± 162 ng·h/mL
C6 glioma [6]; throughout the treatment period
  clinical condition of treated rats: no clinical symptoms
C6 glioma [6]; Day 0 volume 90.9 mm^3
  tumor volume, treatment rat 8, day 8: 5.8 mm^3
C6 glioma [6]; Day 0 volume 100.5 mm^3
  tumor volume, treatment rat 4, Day 5: 70.5 mm^3
  tumor volume, treatment rat 4, Day 10: 18.7 mm^3
[7]; tumor-free brain ECF (left striatum, control), 4 mg/kg IV bolus, tumor-free brain ECF
  Cmax: 183 ± 13 ng/mL
[7]; tumor-free brain ECF (left striatum, control), tumor-free brain ECF, read-out: AUC0-8 hr, Control
  AUC(0-t): 2280 ± 428 ng·h/mL
[7]; tumoral brain ECF (right striatum), tumoral brain ECF, read-out: AUC0-8 hr, Tumor
  AUC(0-t): 4700 ± 555 ng·h/mL
[8]; person, 5-mg tablets once daily, repeat CECT in 2005
  clinical response of brain metastases, case report (Madhup et al.): significant reduction in the brain metastases
[8]; postmenopausal person, 2.5 mg daily, 20 months later
  clinical response of brain metastases, case report (Goyal et al.): complete recovery of neurological functions
In vivo; brain ECF (striatum microdialysate) versus unbound plasma, 4 mg/kg
  Kp: 0.51
In vivo; brain ECF / unbound plasma, 4 mg/kg
  Kp: 0.32
In vivo; brain ECF / unbound plasma, 6 mg/kg
  Kp: 0.98
In vivo; brain ECF / unbound plasma, 8 mg/kg
  Kp: 0.77
In vivo; brain ECF / unbound plasma, 12 mg/kg
  Kp: 0.8
In vivo; brain ECF, 4 mg/kg
  AUC(0-t): 583 ± 189 ng·h/mL
  Cmax: 132 ± 79 ng/mL
  Tmax: 1.4 ± 0.6 h
In vivo; brain ECF, 6 mg/kg
  AUC(0-t): 2010 ± 137 ng·h/mL
In vivo; brain ECF, 8 mg/kg
  AUC(0-t): 2640 ± 286 ng·h/mL
  Tmax: 1.33 ± 0.5 h
In vivo; brain ECF, 12 mg/kg
  AUC(0-t): 2550 ± 173 ng·h/mL
  Tmax: 1.3 to 1.5 h
In vivo; plasma (total), 4 mg/kg
  AUC(0-t): 4780 ± 932 ng·h/mL
  Cmax: 682 ± 24 ng/mL
In vivo; plasma (total), 6 mg/kg
  AUC(0-t): 5980 ± 146 ng·h/mL
  Cmax: 916 ± 71 ng/mL
In vivo; plasma (total), 8 mg/kg
  AUC(0-t): 8830 ± 1080 ng·h/mL
  Cmax: 1280 ± 182 ng/mL
In vivo; plasma (total), 12 mg/kg
  AUC(0-t): 8060 ± 1420 ng·h/mL
  Cmax: 2070 ± 258 ng/mL
[9]; 4 mg/kg IV bolus
  Cmax, Brain: 132 ± 79 ng/mL
  AUC0-8 hr, Plasma ub (Unbound): 1817 ± 354 ng·h/mL
  Cmax, Plasma ub (Unbound): 259 ± 9 ng/mL
[9]; 6 mg/kg IV bolus
  AUC0-8 hr, Plasma ub (Unbound): 2272 ± 56 ng·h/mL
  Cmax, Plasma ub (Unbound): 348 ± 27 ng/mL
[9]; 8 mg/kg IV bolus
  Cmax, Brain: 376 ± 61 ng/mL
  AUC0-8 hr, Plasma ub (Unbound): 3355 ± 412 ng·h/mL
  Cmax, Plasma ub (Unbound): 485 ± 69 ng/mL
[9]; 12 mg/kg IV bolus
  Cmax, Brain: 631 ± 22 ng/mL
  AUC0-8 hr, Plasma ub (Unbound): 3062 ± 539 ng·h/mL
  Cmax, Plasma ub (Unbound): 787 ± 98 ng/mL
[9]; IV bolus 4, 6, 8, 12 mg/kg, linear regression of Cmax and AUC0-8hr
  dose linearity of brain and plasma pharmacokinetics: linear up to 8 mg/kg and potentially non-linear thereafter
